Reference: ChEMBL document CHEMBL4138112, “Synthesis of novel indole derivatives as promising DNA-binding agents and evaluation of antitumor and antitopoisomerase I activities” (Eur J Med Chem, 2017)
Calls of active or inactive are those of the source. No cut-off for these calls is given here.

Columns and labels:
HL-60 = experiment: Cytotoxicity against human HL60 cells assessed as reduction in cell viability after 72 hrs by MTT assay; assay type: functional, cell-based; details: HL-60, 72 h
K562 = experiment: Cytotoxicity against human K562 cells assessed as reduction in cell viability after 72 hrs by MTT assay; assay type: functional, cell-based; details: K562, 72 h
T47D = experiment: Cytotoxicity against human T47D cells assessed as reduction in cell viability after 72 hrs by MTT assay; assay type: functional, cell-based
MCF7 = experiment: Cytotoxicity against human MCF7 cells assessed as reduction in cell viability after 72 hrs by MTT assay; assay type: functional, cell-based; details: MCF7, 72 h
Calf thymus DNA [1] = experiment: Binding affinity to calf thymus DNA assessed as hyperchromicity at 10 to 80 uM by UV-Visible absorption spectroscopy relative to control; assay type: nucleic-acid assay; details: Bos taurus
Calf thymus DNA [2] = experiment: Binding affinity to calf thymus DNA by UV-Visible absorption spectroscopy; assay type: nucleic-acid assay; details: Bos taurus
Calf thymus DNA [3] = experiment: Inhibition of ethidium bromide binding to calf thymus DNA by fluorescence spectra analysis; assay type: nucleic-acid assay; details: Bos taurus
Calf thymus DNA [4] = experiment: Binding affinity to calf thymus DNA assessed as change in absorption maximum at 10 to 80 uM by UV-Visible absorption spectroscopy (reference value: 425 to 500 nanometer); assay type: nucleic-acid assay; details: Bos taurus
Calf thymus DNA [5] = experiment: Binding affinity to calf thymus DNA assessed as hypochromicity at 10 to 80 uM by UV-Visible absorption spectroscopy relative to control; assay type: nucleic-acid assay; details: Bos taurus
Calf thymus DNA [6] = experiment: Inhibition of ethidium bromide binding to calf thymus DNA at 20 to 200 uM by fluorescence spectra analysis; assay type: nucleic-acid assay; details: Bos taurus
[7] = molecular target: T1, DNA topoisomerase 1 (Homo sapiens) (UniProt P11387); experiment: Inhibition of human recombinant topoisomerase 1-mediated relaxation of supercoiled pUC19 DNA at 10 to 50 uM after 45 mins by ethidium bromide staining based agarose gel electrophoresis method
T1 sequence (whole entry): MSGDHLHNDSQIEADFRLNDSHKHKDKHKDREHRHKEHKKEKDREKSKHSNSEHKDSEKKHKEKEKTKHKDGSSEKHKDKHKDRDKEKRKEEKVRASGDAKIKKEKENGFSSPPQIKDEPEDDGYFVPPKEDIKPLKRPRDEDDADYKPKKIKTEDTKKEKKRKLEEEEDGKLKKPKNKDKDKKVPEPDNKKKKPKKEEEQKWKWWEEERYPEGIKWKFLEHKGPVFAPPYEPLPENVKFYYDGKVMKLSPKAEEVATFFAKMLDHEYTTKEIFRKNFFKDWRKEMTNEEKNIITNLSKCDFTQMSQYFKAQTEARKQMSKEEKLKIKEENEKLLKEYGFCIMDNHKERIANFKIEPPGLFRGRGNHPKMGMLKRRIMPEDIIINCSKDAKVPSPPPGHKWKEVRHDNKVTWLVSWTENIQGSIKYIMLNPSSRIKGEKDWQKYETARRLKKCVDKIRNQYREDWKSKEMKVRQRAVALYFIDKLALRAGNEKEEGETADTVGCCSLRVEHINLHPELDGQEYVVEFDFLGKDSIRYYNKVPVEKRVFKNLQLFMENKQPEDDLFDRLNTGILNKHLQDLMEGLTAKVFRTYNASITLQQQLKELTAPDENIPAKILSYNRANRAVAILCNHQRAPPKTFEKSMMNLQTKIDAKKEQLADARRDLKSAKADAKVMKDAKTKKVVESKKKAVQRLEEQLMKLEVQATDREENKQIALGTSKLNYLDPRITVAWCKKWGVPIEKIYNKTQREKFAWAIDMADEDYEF

Activity (Calf thymus DNA [1]) [%]	Kb (Calf thymus DNA [2]) [×10⁴ /M]	KSV (Calf thymus DNA [3])	Activity (Calf thymus DNA [4]) [nm]	Activity (Calf thymus DNA [5]) [%]	Activity (Calf thymus DNA [6])	inhibition [7]	Structure (SMILES)	IC50 (HL-60) [µM]	IC50 (K562) [µM]	IC50 (T47D) [µM]	IC50 (MCF7) [µM]
75	4.51	1.78 ×10³ /M	436 to 462				O=C1NC(=S)S/C1=C\c1c[nH]c2ccccc12	> 50	> 50	> 50	> 50
8	1.56	6.31 ×10³ /M	462 to 465				O=C1NC(=S)S/C1=C\c1c[nH]c2ccc(Br)cc12	> 50	> 50	11.7	3.65
23	1.84	2.96 ×10³ /M	411 to 413				NN1C(=O)/C(=C/c2c[nH]c3ccc(Br)cc23)SC1=S	6.74	> 50	> 50	> 50
	5.24	3.86 ×10³ /M	457	6			O=C1NC(=O)/C(=C/c2c[nH]c3ccc(Br)cc23)S1	> 50	> 50	> 50	> 50
	7.26	1.59 ×10³ /M	378	24			O=C1NC(=O)/C(=C/c2c[nH]c3ccccc23)S1	12.8	> 50	1.93	> 50

Continued, compound first:

Structure (SMILES)	Activity (Calf thymus DNA [1]) [%]	Kb (Calf thymus DNA [2]) [×10⁴ /M]	KSV (Calf thymus DNA [3])	Activity (Calf thymus DNA [4]) [nm]	Activity (Calf thymus DNA [5]) [%]	Activity (Calf thymus DNA [6])	inhibition [7]	IC50 (HL-60) [µM]	IC50 (K562) [µM]	IC50 (T47D) [µM]	IC50 (MCF7) [µM]
O=C1NC(=S)N/C1=C\c1c[nH]c2ccccc12		6.27	1.36 ×10³ /M	423	11			> 50	> 50	> 50	12.4
COc1cccc2c1C(=O)c1c(O)c3c(c(O)c1C2=O)C[C@@](O)(C(=O)CO)C[C@@H]3O[C@H]1C[C@H](N)[C@H](O)[C@H](C)O1 [DOXORUBICIN]								0.01	6.25	4.61	2.71
NN1C(=O)/C(=C/c2c[nH]c3ccccc23)SC1=S	6	5.69	1.81 ×10⁴ /M	504 to 507		Active	Active	3.61	22.5	> 50	> 50
